Measurements reported in patent US20250275928A1, “NANOPARTICLE-BASED ABUSE-DETERRENT FORMULATIONS AND METHODS OF MAKING AND USING” (Purdue Research Foundation, priority 2021, published 2025).
Converted amounts (≈) assume the structure as drawn.

Experiments:
[1] = Equilibrium solubility of thebaine in ethanol; assay type: physicochemical; conditions: organic solvent or mixture, thermodynamic from solid
Experimental: Chemical extractability of thebaine, a model opioid drug, as a mixture with a non-gel forming excipient, Avicel pH 102, or selected gel-forming polymers, was tested using absolute ethanol. […] Physical mixtures of thebaine (600 μg) with 150 mg Avicel or Avicel with selected polymers (80 mg XG, 20 mg XG+30 mg HEC, or 20 mg XG+60 mg CS) mg) were extracted in 1 mL of absolute ethanol for 1 h. Free thebaine without any excipients was also tested for comparison.

[2] = Thermal stability of thebaine (TGA, heating); assay type: physicochemical
[3] = Dissolution in simulated gastric fluid; conditions: after 12 and 24 h
[4] = Chemical extractability from nanocapsules by household solvents

COC1=CC=C2[C@H]3Cc4ccc(OC)c5c4[C@@]2(CCN3C)[C@H]1O5 [thebaine]
solubility thermodynamic at 24 h ([1]; in 24 h): 10.4 mg/mL (≈ 33.4 mM) | solubility thermodynamic at 72 h ([1]; in 72 h): 10.5 mg/mL (≈ 33.7 mM) | drug that withstood heating ([2]; 180° C. for 10 min, drug alone): 86.9% | temperature at which decomposition began (TGA) ([2]; thermogravimetric analysis): around 200 °C | stability in SGF [3]: degraded | solubility in household solvents ([4]; all tested solvents except for 0.9% NaCl and 0.1 M NaOH): soluble | dissolution in household solvents ([4]; most solvents at equivalent concentrations): dissolves completely
